Source: patent US9567371B2, “Short beta-defensin-derived peptides” (Yeda Research and Development Co. Ltd., priority 2009, dated 2017)
Peptide text beside a SMILES is read from it.

Key:
[1] = test system: G2 cells and mouse BM MNC; experiment: Chemotaxis assay (untreated cells migrate towards peptide in bottom chamber); type: cell-based; conditions: 1 and 10 μM peptide in bottom chamber, 4 hrs
Description: FIGS. 9A-9B. AK-1 increases SDF-1-induced migration and chemotaxis of G2 and mouse bone marrow mononuclear cells (BM MNC). (A) G2 cells and mouse BM MNC were preincubated with 1 and 10 μM AK-1 for 3 hrs in serum free medium, washed and allowed to migrate towards SDF-1. Migrated cells were collected and calculated by flow cytometry. Percentage of migrated cells is presented as compared to untreated control taken as 100%. (B) Untreated G2 cells and mouse BM MNC were put to the upper chambers of the transwell plates and allowed to migrate towards 1 and 10 μM AK-1 present the bottom chambers of the transwell plates for 4 hrs. Percentage of migrated cells is presented as compared to untreated (UT) control taken as 100%. Data shown are the mean±SD of 2 separate experiments. *P<0.05 compared to control.
Various cells (1×10^6/mL), untreated or pretreated with peptides for 3 hrs at 96-well flat bottom plates at 37° C. were washed, 2×10^5 cells/100 μL were added to the upper chambers of Costar 24-well transwell plates with 5 μm pore filters (Corning Inc., Corning, N.Y.) and allowed to migrate for 2-4 hrs at 37° C. (95% humidity, 5% CO2) spontaneously or towards 50 ng/mL SDF-1 (rhSDF-1, Peprotech, Rocky Hill, N.J.) in medium supplemented with 10% FCS. […] Migrated cells were collected from the lower chambers and counted using a flow cytometer. […]

pre-B-ALL G2 cells = experiment: Cell toxicity assay (propidium iodide exclusion, flow cytometry); type: cell-based, human; conditions: 6 and 24 h, FIG. 1
Description: FIG. 1. […] G2 cells (1×10^6/ml) were cultured in 96-well flat-bottom wells in serum free IMDEM culture medium supplemented with L-glutamine and antibiotics, for 6 and 24 h at 37° C. with the indicated peptides. Untreated cells served as a control. After treatment, cells were stained with propidium iodide (PI) and its exclusion was analyzed by flow cytometry. Data shown are the percentage of Pr (dead) cells. Vertical bars represent standard deviation of duplicate experiments. *P<0.05 compared to untreated control.
Pre-B-ALL G2 cells and freshly isolated primary human CD3^+ T cells (1×10^6/ml) were cultured in 96-well flat-bottom wells in serum free IMDM or RPMI 1640 medium, respectively, both supplemented with L-glutamine and antibiotics, for 6 and 24 hrs at 37° C. (95% humidity, 5% CO2) with 10 μM, 100 μM or 1 mM of the peptides. Untreated cells served as a control. Cell viability was determined by propidium iodide (PI) exclusion by flow cytometry as described (Goichberg, P., et al., 2006).
In order to test cytotoxicity of the peptides, human pre-B-ALL G2 cells and freshly isolated primary human CD3^+ T cells (1×10^6/ml) were cultured in with 10 μM, 100 μM or 1 mM of TL-1, AK-1 and cyclic TL-1, as described in the Material and Methods. All tested peptides were not toxic for G2 cells (FIG. 1) as well as for primary human T cells at 10 μM and 100 μM. Even in the highest concentration, 1 mM, the peptides killed only 8-12% and 14-16% cells treated for 6 and 24 hrs, respectively, indicating a very low cytotoxicity of the peptides.

N=C(N)NCCC[C@@H]1NC(=O)CNC(=O)[C@H](CCCNC(=N)N)NC(=O)[C@H](CCCCN)NC(=O)[C@H](CCCCN)NC(=O)[C@H](CCCNC(=N)N)NC(=O)[C@H](CCCNC(=N)N)NC(=O)[C@H](CS)NC(=O)[C@H](CS)NC(=O)[C@H](CCCCN)NC1=O [cyclic TL-1, 1,10-cyclo[RGRKCCRRKK]] (cyclo(CCRRKKRGRK))
chemotaxis of untreated cells towards the peptide [1]: ineffective | cellular toxicity (percentage of PI+ dead cells) (pre-B-ALL G2 cells): Low cellular toxicity
